Experimental data: patent publication US9855277B2, “Use of 5H-dibenz/b,f/azepine-5-carboxamide derivatives for treating fibromyalgia” (BIAL—PORTELA & CA, S.A., priority 2009, dated 2018)

What was measured:
Assay type in all cases: in vivo
[1] = Plasma bioanalysis in CCI mice after oral ESL; details: oral ESL 50-200 mg/kg
Mice (NMRI) = experiment: Formalin paw test; details: 300 mg/kg p.o.
Method: The method, which detects analgesic activity, follows that described by Wheeler-Aceto et al (see […]-ACETO, H. & A., C. (1991), “Standardization of the rat paw formalin test for the evaluation of analgesics”, Psychopharmacology, 104, 35-44). Mice (NMRI) were given an intraplantar injection of 5% formalin (25 μl) into the posterior left paw. […] The time spent licking was counted for 15 minutes, beginning 15 minutes after injection of formalin. 10 mice were studied per group. The test was performed blind. ESL and carbamazepine (CBZ) were tested at the doses of 10, 30, 100 and 300 mg/kg p.o., and oxcarbazepine (OXC) and R-Lic were tested at the doses of 100 and 300 mg/kg p.o., administered 60 minutes before the test (i.e. 45 minutes before formalin), and compared with a vehicle control group in each experiment. Morphine (64 mg/kg p.o.), administered under the same experimental conditions, was used as reference substance.

[2] = test system: mice with chronic constriction nerve injury (CCI); experiment: Paw withdrawal threshold (von Frey filaments) in CCI mice; details: gabapentin 100 mg/kg p.o.
Method: The materials used were (as also indicated in FIGS. 1 and 2): • Vehicle: 0.5% hydroxy-propyl-methyl-cellulose (HPMC) in water, 5 ml/kg, p.o.; • 50 mg/kg, 100 mg/kg, 150 mg/kg and 200 mg/kg: ESL at 50, 100, 150 and 200 mg/kg, p.o.; • GP 100 mg/kg: gabapentin 100 mg/kg, p.o.
The potential analgesic effects of orally dosed ESL was investigated at doses of 50, 100, 150 and 200 mg/kg, on the paw withdrawal threshold (PWT) and these effects compared with those of the dose vehicle and gabapentin, the latter at 100 mg/kg, in a mouse model of chronic constriction nerve injury (CCI).
Each animal received a single oral dose of either ESL (50, 100, 150, or 200 mg/kg), or gabapentin (100 mg/kg in saline) or vehicle (5 ml/kg). Behavioural testing was then performed twice, at approximately 60 and 120 minutes post-dose, to investigate the effect of treatments.

SMILES: NC(=O)N1c2ccccc2C[C@H](O)c2ccccc21 [eslicarbazepine]
- plasma concentrations vs dose of ESL [1]: positively correlated with the doses of ESL administered

SMILES: NC(=O)N1c2ccccc2C=Cc2ccccc21 [CBZ, carbamazepine, reference compound]
- licking in the formalin test at 300 mg/kg (Mice (NMRI)): abolished licking

SMILES: NCC1(CC(=O)O)CCCCC1 [gabapentin, reference compound]
- PWT in the contralateral limbs vs vehicle group ([2]; 2 hour after dosing, P<0.05): significantly higher
- PWT ([2]; positive control): significantly increased PWT
